Consider 22 compounds from patent publication US20250161307A1, “PYRAZOLOPYRIMIDINES AS MODULATORS OF SPERMINE OXIDASE” (Janssen Pharmaceutica NV, priority 2022, published 2025).

Each structure is given as a SMILES string. Where a name gives a salt, the structure may show the parent alone.

Assay [1] deals with T1, SMOX (Homo sapiens (Human), UniProt Q9NWM0). Nature of the assay: Cellular Thermal Shift Assay (CETSA) with alphaLISA detection of intact SMOX in A549 cells. As to conditions: 1 hour compound incubation at 37° C., heated to 55° C. for 5 minutes. It counts as cell-based. The source says:
The Cellular Thermal Shift Assay (CETSA) is a biophysical assay based on the principle of ligand-induced thermal stabilization of target proteins, meaning that a protein denaturing temperature will change upon ligand interaction. Thus, by heating samples (i.e. cells, ex vivo samples) to different temperatures, and quantifying conformationally intact proteins we can detect compound-protein interactions after compound treatment. CETSA allows direct monitoring of ligand binding to a specific target (target engagement). In our study, we have developed a suitable detection system that will detect intact SMOX using the alphaLISA. […] The detection of compound -SMOX ligand binding is performed using A549 cells. This adenocarcinoma human alveolar basal epithelial cell line expresses high levels of SMOX. Their use has been widely reported in the literature with respect to the investigation of the SMOX pathway. Using SMOX high-expressing cells with CETSA and alphaLISA systems provides the optimal platform for screening small molecules for SMOX inhibition.
A549 cells were seeded at a density of 0.05-0.1×10^6 cells/mL in T175 flasks and cultured in 25 mL of culture medium consisting in RPMI 1640 medium (Gibco) supplemented with 10% fetal bovine serum (Gibco). Cells were passaged twice per week and used for CETSA assays before reaching confluency. One day prior to the CETSA cells were seeded in 384-well white assay plates (Corning) at 15000 cells per well. Briefly, cells were washed with PBS (Life Technologies Europe BV) and dissociated by adding 2 mL TrypLE™ Select (Life Technologies Europe BV). After 5 min at 37° C., cells were resuspended in culture medium, counted using a ViCell XR cell counter (ViCell) and seeded in the 384-well plates.
Compounds were pre-diluted in PBS to a final concentration of […] and 1% DMSO and serially diluted in PBS 1% DMSO. For compound-cell incubation, medium in the 384 well plates was replaced with 30 μL of serially diluted compounds. After incubation at 37° C. for 1 hour the liquid was removed and plates were heated to 55° C. for 5 minutes and then transferred to ice for 5 minutes. After the cooling step, cells were lysed by adding 15 μL 1× alphaLISA-buffer (Perkin Elmer) containing anti-SMOX monoclonal antibody #2 and anti-SMOX Fab-fragment #33 mixture at a concentration of 5 and 0.5 nM respectively. After one hour at RT, 5 μL anti-6×His alphaLISA acceptor beads (50 mg/L, AL128C, Perkin Elmer) were added to the wells followed by an additional incubation of one hour at RT. Then 5 μL anti-rabbit IgG alpha donor beads (200 mg/L was added to the wells. After one hour incubation at RT the alpha signal was read using an alpha compatible reader. MDL75257 (M2949, Sigma) was used as positive control for compound-SMOX interaction. Compound-SMOX interaction is detected through the comparison of the high alpha signal of the negative control with the much lower signal of the wells that contain SMOX binding compounds.
In general terms: In Alpha technology, singlet oxygen from a donor bead excites a nearby acceptor bead.

In assay [2] the target is T1, SMOX. The assay can be described thus: Human SMOX assay (HyPerBlu chemiluminescent detection of hydrogen peroxide). The format is biochemical. To be noted: 2.5 nM full length hSMOX, spermine substrate, 1 h at room temperature, luminescence read; read-out: SMOx_IC50. The gist of the method: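 Full-length N-His human SMOX (2.5 nM, E. coli-expressed) was incubated 1 h at room temperature with 30 µM spermine, 11-point compound dilutions and 1.25% DMSO in pH 7.4 HEPES/NaCl/EGTA buffer. H2O2 was detected by HyPerBlu chemiluminescence after 30 min, and IC50 came from dose–response fits.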

For a further assay, the target named is hPAOX (Homo sapiens (Human), UniProt Q6QHF9). The assay can be described thus: Human PAOX assay (HyPerBlu chemiluminescent detection of hydrogen peroxide). It counts as biochemical. To be noted: 60 pM recombinant PAOX, 20 μM N-acetylspermine substrate. The gist of the method: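 His-tagged recombinant PAOX expressed in sf9 insect cells was used at 60 pM, with 20 μM N-acetylspermine as substrate. Hydrogen peroxide formed by the reaction was detected by chemiluminescence from a boronate probe (HyPerBlu). Inhibition appears as lower luminescence.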
hPAOX, sequence (Q6QHF9 whole entry): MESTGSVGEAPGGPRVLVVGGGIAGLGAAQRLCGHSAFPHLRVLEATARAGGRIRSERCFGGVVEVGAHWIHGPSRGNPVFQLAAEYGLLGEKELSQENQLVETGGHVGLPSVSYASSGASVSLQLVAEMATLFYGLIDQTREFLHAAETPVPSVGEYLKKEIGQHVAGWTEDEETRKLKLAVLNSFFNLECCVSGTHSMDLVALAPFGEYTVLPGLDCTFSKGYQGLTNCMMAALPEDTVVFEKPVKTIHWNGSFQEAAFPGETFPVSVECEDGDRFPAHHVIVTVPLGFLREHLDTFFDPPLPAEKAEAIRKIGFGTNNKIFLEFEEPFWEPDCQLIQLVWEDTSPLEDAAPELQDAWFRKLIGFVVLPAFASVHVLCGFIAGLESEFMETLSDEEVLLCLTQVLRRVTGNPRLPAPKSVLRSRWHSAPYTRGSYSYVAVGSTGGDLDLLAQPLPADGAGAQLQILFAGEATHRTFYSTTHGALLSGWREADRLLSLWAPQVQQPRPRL

T1 sequence (Q9NWM0 whole entry): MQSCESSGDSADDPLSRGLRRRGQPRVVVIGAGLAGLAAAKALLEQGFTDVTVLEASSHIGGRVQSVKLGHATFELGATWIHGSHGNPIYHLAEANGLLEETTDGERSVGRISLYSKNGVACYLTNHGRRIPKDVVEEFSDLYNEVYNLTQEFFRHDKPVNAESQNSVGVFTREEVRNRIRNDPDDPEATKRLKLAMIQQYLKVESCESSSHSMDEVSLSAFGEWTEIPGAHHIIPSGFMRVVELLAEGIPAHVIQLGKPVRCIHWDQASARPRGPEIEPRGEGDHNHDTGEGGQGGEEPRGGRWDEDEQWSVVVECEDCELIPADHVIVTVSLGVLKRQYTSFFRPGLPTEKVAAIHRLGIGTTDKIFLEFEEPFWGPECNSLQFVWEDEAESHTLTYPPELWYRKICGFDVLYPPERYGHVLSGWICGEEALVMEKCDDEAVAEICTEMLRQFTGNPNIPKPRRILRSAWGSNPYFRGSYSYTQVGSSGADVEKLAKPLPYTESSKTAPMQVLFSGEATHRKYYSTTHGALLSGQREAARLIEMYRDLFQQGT

As to `Cc1nccn1CCCNC(=O)c1cc2nc(-c3ccccc3)cc(-c3ccccc3)n2n1` [Example 2, N-(3-(2-Methyl-1H-imidazol-1-yl)propyl)-5,7-diphenylpyrazolo[1,5-a]pyrimidine-2-carboxamide], the “SMOx % recovery CETSA” value on SMOX [1] is given as 26%. The IC50 on SMOX [2] turned out to be 45 nM; at hPAOX, 942 nM.

Turning to `CN1CC(NC(=O)c2cc3nc(-c4ccccc4)cc(-c4ccccc4)n3n2)C1` [Example 23, N-(1-Methylazetidin-3-yl)-5,7-diphenylpyrazolo[1,5-a]pyrimidine-2-carboxamide], at SMOX [1], the “SMOx % recovery CETSA” value was determined as 52%. Besides, the results for the IC50 at SMOX [2] and on hPAOX were 49 nM and 960 nM, respectively.

`CC(C)Nc1cc(-c2ccccc2)nc2cc(C(=O)NCCCn3ccnc3)nn12` [Example 57, N-(3-(1H-Imidazol-1-yl)propyl)-7-(isopropylamino)-5-phenylpyrazolo[1,5-a]pyrimidine-2-carboxamide]: on SMOX [1], the “SMOx % recovery CETSA” value came out at 1%. Besides, the IC50 at SMOX [2] was 176 nM; at hPAOX, 4440 nM.

For `N#Cc1ccc(-c2cc(-c3ccccc3)nc3cc(C(=O)NCCCn4ccnc4)nn23)cc1` [Example 90, N-(3-(1H-imidazol-1-yl)propyl)-7-(4-cyanophenyl)-5-phenylpyrazolo[1,5-a]pyrimidine-2-carboxamide], on SMOX [1], the “SMOx % recovery CETSA” value is 3%. Further, the figures for the IC50 at SMOX [2] and on hPAOX were 78 nM and 1610 nM, respectively.

With `O=C(NCCCn1ccnc1)c1cc2nc(-c3ccccc3)cc(-c3cccc(F)c3)n2n1` [Example 78, N-(3-(1H-imidazol-1-yl)propyl)-7-(3-fluorophenyl)-5-phenylpyrazolo[1,5-a]pyrimidine-2-carboxamide], at SMOX [1], the “SMOx % recovery CETSA” value was determined as 0%. Besides, the IC50 at SMOX [2] stood at 36 nM; at hPAOX, 1410 nM.

As to `CN1CC(NC(=O)c2cc3nc(-c4ccccc4)cc(-c4ccccn4)n3n2)C1` [Example 92, N-(1-methylazetidin-3-yl)-5-phenyl-7-(pyridin-2-yl)pyrazolo[1,5-a]pyrimidine-2-carboxamide], the “SMOx % recovery CETSA” value on SMOX [1] is recorded as 20%. In addition, the IC50 at SMOX [2] was 239 nM; on hPAOX it was 520 nM.

For `O=C(NCCCn1ccnc1)c1cc2nc(-c3ccccc3)cc(-c3ccccn3)n2n1` [Example 91, N-(3-(1H-imidazol-1-yl)propyl)-5-phenyl-7-(pyridin-2-yl)pyrazolo[1,5-a]pyrimidine-2-carboxamide], on SMOX [1], the “SMOx % recovery CETSA” value is 111%. Further, the IC50 on SMOX [2] stood at 43 nM; at hPAOX it was 2050 nM.

In the case of `O=C(NCCCn1ccnc1)c1cc2nc(-c3ccccc3)cc(N3CCC(F)CC3)n2n1` [Example 63, N-(3-(1H-Imidazol-1-yl)propyl)-7-(4-fluoropiperidin-1-yl)-5-phenylpyrazolo[1,5-a]pyrimidine-2-carboxamide], the “SMOx % recovery CETSA” value at SMOX [1] was 6%. For the same compound, the IC50 on SMOX [2] worked out at 241 nM; at hPAOX it was 2330 nM.

On to `O=C(NCCCc1c[nH]cn1)c1cc2nc(-c3ccccc3)cc(-c3ccccc3)n2n1` [Example 27, N-(3-(1H-Imidazol-4-yl)propyl)-5,7-diphenylpyrazolo[1,5-a]pyrimidine-2-carboxamide], for which the “SMOx % recovery CETSA” value on SMOX [1] was found to be 43%. Further, the IC50 is 15 nM at SMOX [2] and 49 nM on hPAOX.

Regarding `N#Cc1cccc(-c2cc(-c3ccccc3)nc3cc(C(=O)NCCCn4ccnc4)nn23)c1` [Example 89, N-(3-(1H-imidazol-1-yl)propyl)-7-(3-cyanophenyl)-5-phenylpyrazolo[1,5-a]pyrimidine-2-carboxamide], the “SMOx % recovery CETSA” value at SMOX [1] came out at 0%. In addition, the figures for the IC50 on SMOX [2] and at hPAOX were 159 nM and 879 nM, respectively.

As for `O=C(NCCCn1ccnc1)c1cc2nc(-c3ccccc3)cc(N3CC4CC4C3)n2n1` (stereo not drawn) [Example 61, N-(3-(1H-Imidazol-1-yl)propyl)-7-(3-azabicyclo[3.1.0]hexan-3-yl)-5-phenylpyrazolo[1,5-a]pyrimidine-2-carboxamide], the IC50 on SMOX [2] came out at 486 nM; at hPAOX, 3930 nM.

For `O=C(NCCCn1ccnc1)c1cc2nc(-c3ccccc3)cc(C3CCCC3)n2n1` [Example 108, N-(3-(1H-imidazol-1-yl)propyl)-7-cyclopentyl-5-phenylpyrazolo[1,5-a]pyrimidine-2-carboxamide], the IC50 turned out to be 305 nM at SMOX [2] and 840 nM at hPAOX.

In the case of `CNCCCNC(=O)c1cc2nc(-c3ccccc3)cc(-c3ccccc3)n2n1` [Example 118, N-(3-(methylamino)propyl)-5,7-diphenylpyrazolo[1,5-a]pyrimidine-2-carboxamide], the IC50 at SMOX [2] was 230 nM; at hPAOX, 103 nM.

As for `CN1CC[C@@H](NC(=O)c2cc3nc(-c4ccccc4)cc(N4CCCCC4)n3n2)C1` (single isomer, unassigned) [Example 72, (*R)—N-(1-methylpyrrolidin-3-yl)-5-phenyl-7-(piperidin-1-yl)pyrazolo[1,5-a]pyrimidine-2-carboxamide trifluoroacetate], the IC50 at SMOX [2] stood at 1010 nM; at hPAOX, 7140 nM.

`CN1CC(NC(=O)c2cc3nc(-c4ccccn4)cc(-c4ccccc4)n3n2)C1` [Example 102, N-(1-methylazetidin-3-yl)-7-phenyl-5-(pyridin-2-yl)pyrazolo[1,5-a]pyrimidine-2-carboxamide]: the results for the IC50 on SMOX [2] and on hPAOX were 1550 nM and 10000 nM, respectively.

For the compound `O=C(NC1CCCC(n2ccnc2)C1)c1cc2nc(-c3ccccc3)cc(-c3ccccc3)n2n1` (stereo not drawn) [Example 37, N-(3-(1H-Imidazol-1-yl)cyclohexyl)-5,7-diphenylpyrazolo[1,5-a]pyrimidine-2-carboxamide], the IC50 on SMOX [2] worked out at 878 nM; at hPAOX it was 12600 nM.

For the compound `O=C(NCCCCN1CCCC1)c1cc2nc(-c3ccccc3)cc(-c3ccccc3)n2n1` [Example 30, 5,7-Diphenyl-N-(4-(pyrrolidin-1-yl)butyl)pyrazolo[1,5-a]pyrimidine-2-carboxamide], the IC50 at SMOX [2] came out at 297 nM; on hPAOX it was 129 nM.

Take `CN1CCC(C)(CNC(=O)c2nn3c(-c4ccccc4)cc(-c4ccccc4)nc3c2I)C1` (stereo not drawn) [Example 48, N-((1,3-Dimethylpyrrolidin-3-yl)methyl)-3-iodo-5,7-diphenylpyrazolo[1,5-a]pyrimidine-2-carboxamide]: the IC50 was found to be 698 nM at SMOX [2] and 7590 nM on hPAOX.

Consider `O=C(NCCCn1ccnc1)c1cc2nc(-c3ccccc3)cc(-c3cccnc3)n2n1` [Example 96, N-(3-(1H-imidazol-1-yl)propyl)-5-phenyl-7-(pyridin-3-yl)pyrazolo[1,5-a]pyrimidine-2-carboxamide], for which the IC50 turned out to be 1250 nM at SMOX [2] and 6910 nM at hPAOX.

For `Cn1ccc(-c2cc(-c3ccccc3)nc3cc(C(=O)NCCCn4ccnc4)nn23)n1` [Example 85, N-(3-(1H-imidazol-1-yl)propyl)-7-(1-methyl-1H-pyrazol-3-yl)-5-phenylpyrazolo[1,5-a]pyrimidine-2-carboxamide], the IC50 on SMOX [2] amounted to 812 nM; at hPAOX, 2370 nM.

Consider `CN1CC(NC(=O)c2nn3c(-c4ccccc4)cc(-c4ccccc4)nc3c2F)C1` [Example 52, 3-Fluoro-N-(1-methylazetidin-3-yl)-5,7-diphenylpyrazolo[1,5-a]pyrimidine-2-carboxamide], for which the IC50 at SMOX [2] is 215 nM; on hPAOX it was 1920 nM.

As for `Cc1c(C(=O)NC2CN(C)C2)nn2c(-c3ccccc3)cc(-c3ccccc3)nc12` [Example 50, 3-Methyl-N-(1-methylazetidin-3-yl)-5,7-diphenylpyrazolo[1,5-a]pyrimidine-2-carboxamide], the IC50 at SMOX [2] turned out to be 110 nM; at hPAOX it was 3130 nM.
